Results from US20240228488A1 (TAKEDA PHARMACEUTICAL COMPANY LIMITED, priority 2021, published 2024).

Assays:
plasma kallikrein = target: T1, plasma kallikrein (Homo sapiens, UniProt P03952); assay: Neat human plasma assay, FXIIa contact pathway-activated, PFR-AMC substrate; assay type: biochemical; details: citrated human plasma 78% final, 10 nM human FXIIa, 100 μM PFR-AMC; read-out: Human Plasma Assay: IC90
T1 construct: from tissue
How it was run: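 Compound inhibition of plasma kallikrein measured as PFR-AMC (100 μM) cleavage rate over 5 min at room temperature in 78% citrated human plasma activated with 10 nM FXIIa (Tris pH 7.5 buffer). IC50/IC90 from 4-parameter fit of rate versus inhibitor concentration.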

[1] = target: human activated kallikrein enzyme (Homo sapiens, UniProt P03952); assay: Plasma kallikrein inhibition, fluorogenic PFR-AMC substrate, 500 pM activated kallikrein format; assay type: biochemical; details: 500 pM activated kallikrein, 300 uM PFR-AMC, 30 min preincubation, 10 min reaction; read-out: Primary Dose Response Assay: Average EC50
How it was run: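 High-enzyme format of the fluorogenic peptide assay, with EC50 taken from AMC signal: 500 pM activated kallikrein, 300 uM Pro-Phe-Arg-AMC, 30 min compound preincubation and 10 min reaction, all at room temperature, pH 7.5.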

T1 sequence (P03952 391-638 limits assumed): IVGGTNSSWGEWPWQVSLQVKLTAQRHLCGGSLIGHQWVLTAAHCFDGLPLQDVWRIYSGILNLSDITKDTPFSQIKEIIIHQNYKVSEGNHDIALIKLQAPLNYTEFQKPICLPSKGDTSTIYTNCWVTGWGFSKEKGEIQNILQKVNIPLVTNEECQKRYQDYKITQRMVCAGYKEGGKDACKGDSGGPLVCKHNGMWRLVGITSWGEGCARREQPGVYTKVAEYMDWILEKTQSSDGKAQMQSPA
T1 sequence (P03952 20-390 partner limits assumed): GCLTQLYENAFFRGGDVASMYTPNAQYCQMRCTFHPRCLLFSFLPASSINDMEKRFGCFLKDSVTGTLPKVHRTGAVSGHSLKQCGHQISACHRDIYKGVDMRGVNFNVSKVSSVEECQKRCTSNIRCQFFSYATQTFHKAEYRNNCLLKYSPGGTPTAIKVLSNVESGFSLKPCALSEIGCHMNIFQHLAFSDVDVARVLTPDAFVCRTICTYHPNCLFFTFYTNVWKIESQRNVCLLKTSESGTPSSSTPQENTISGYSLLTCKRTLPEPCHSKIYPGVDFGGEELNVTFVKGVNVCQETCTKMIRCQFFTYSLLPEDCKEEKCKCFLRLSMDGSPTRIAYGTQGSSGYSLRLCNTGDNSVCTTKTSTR
human activated kallikrein enzyme, sequence (P03952 391-638 limits assumed): as the sequence (P03952 391-638 limits assumed) above
human activated kallikrein enzyme, sequence (P03952 20-390 partner limits assumed): as the sequence (P03952 20-390 partner limits assumed) above

| SMILES | IC90 (plasma kallikrein) [nM] | EC50 [1] [nM] |
| --- | --- | --- |
| O=C(Nc1cc(NCc2cn3cc(C4CC4)cc(N4CCOCC4)c3n2)ccn1)[C@H]1C[C@@H]1c1cccc(Cl)c1 [Example 129, (1S,2S)-2-(3-chlorophenyl)-N-(4-(((6-cyclopropyl-8-morpholinoimidazo[1,2-a]pyridin-2-yl)methyl)amino)pyridin-2-yl)cyclopropane-1-carboxamide] | 1500 to 10000 | < 1 |
| CS(=O)(=O)c1cc(C2CC2)cn2cc(CNc3cc(NC(=O)[C@H]4C[C@@H]4c4cccc(Cl)c4)ncn3)nc12 (racemic) [Example 60, rac-(1S*,2S*)-2-(3-chlorophenyl)-N-(6-(((6-cyclopropyl-8-(methylsulfonyl)imidazo[1,2-α]pyridin-2-yl)methyl)amino)pyrimidin-4-yl)cyclopropane-1-carboxamide] | 10000 to 48000 | 1 to 10 |
| CN1CCC(F)(c2cc(C3CC3)cn3cc(CNc4cc(NC(=O)[C@H]5C[C@@H]5c5cccc(Cl)c5)ncn4)nc23)CC1 [Example 403, (1S,2S)-2-(3-chlorophenyl)-N-(6-(((6-cyclopropyl-8-(4-fluoro-1-methylpiperidin-4-yl)imidazo[1,2-a]pyridin-2-yl)methyl)amino)pyrimidin-4-yl)cyclopropane-1-carboxamide] | 400 to 1500 | < 1 |
| COC(=O)CN1C(=O)CN(c2cc(C3CC3)cn3cc(COc4cc(NC(=O)[C@H]5C[C@@H]5c5nccc(C)n5)nc(C)n4)nc23)C1=O [Example 550, methyl 2-(3-(6-cyclopropyl-2-(((2-methyl-6-((1S,2S)-2-(4-methylpyrimidin-2-yl)cyclopropane-1-carboxamido)pyrimidin-4-yl)oxy)methyl)imidazo[1,2-a]pyridin-8-yl)-2,5-dioxoimidazolidin-1-yl)acetate] | 400 to 1500 | < 1 |
| Cc1ccnc([C@H]2C[C@@H]2C(=O)Nc2cc(NCc3cn4cc(C5CC5)cc(N5C(=O)N(C)C(=O)C56CC6)c4n3)nc(C)n2)n1 [Example 357, (1S,2S)-N-(6-(((6-cyclopropyl-8-(6-methyl-5,7-dioxo-4,6-diazaspiro[2.4]heptan-4-yl)imidazo[1,2-a]pyridin-2-yl)methyl)amino)-2-methylpyrimidin-4-yl)-2-(4-methylpyrimidin-2-yl)cyclopropane-1-carboxamide] | < 400 | < 1 |
| CN1CCN(c2cc(C3CC3)cn3cc(CNc4cc(NC(=O)[C@H]5C[C@@H]5c5cccc(Cl)c5)ncn4)nc23)CC1=O [Example I-153, (1S,2S)-2-(3-chlorophenyl)-N-(6-(((6-cyclopropyl-8-(4-methyl-3-oxopiperazin-1-yl)imidazo[1,2-a]pyridin-2-yl)methyl)amino)pyrimidin-4-yl)cyclopropane-1-carboxamide] | 1500 to 10000 | 1 to 10 |
| O=C(Nc1cc(N2C[C@@H](O)C[C@@H]2c2cn3cc(C4CC4)ccc3n2)ncn1)[C@H]1C[C@@H]1c1cc(Cl)ccn1 (single isomer, unassigned; isomer 2) [Example I-249, (1S*,2S*)-2-(4-chloropyridin-2-yl)-N-(6-((2R,4S)-2-(6-cyclopropylimidazo[1,2-a]pyridin-2-yl)-4-hydroxypyrrolidin-1-yl)pyrimidin-4-yl)cyclopropane-1-carboxamide, isomer 2] | < 400 | 1 to 10 |
| O=C(Nc1cc(NCc2cn3cc(C4CC4)cc(N4CCS(=O)(=O)CC4)c3n2)ncn1)[C@H]1C[C@@H]1c1cc(Cl)ccn1 [Example 326, (1S,2S)-2-(4-chloropyridin-2-yl)-N-(6-(((6-cyclopropyl-8-(1,1-dioxidothiomorpholino)imidazo[1,2-a]pyridin-2-yl)methyl)amino)pyrimidin-4-yl)cyclopropane-1-carboxamide] | 400 to 1500 | < 1 |
| CN1C(=O)CN(c2cc(C3CC3)cn3cc(CNc4cc(NC(=O)[C@H]5C[C@@H]5c5cccc(Cl)c5)ncn4)nc23)C1=O [Example I-169, (1S,2S)-2-(3-chlorophenyl)-N-(6-(((6-cyclopropyl-8-(3-methyl-2,4-dioxoimidazolidin-1-yl)imidazo[1,2-a]pyridin-2-yl)methyl)amino)pyrimidin-4-yl)cyclopropane-1-carboxamide] | 400 to 1500 | < 1 |
| CN(C)CCc1cc(C2CC2)cn2cc(CNc3ccnc(NC(=O)[C@H]4C[C@@H]4c4cccc(Cl)c4)c3)nc12 [Example 598, (1S,2S)-2-(3-chlorophenyl)-N-(4-(((6-cyclopropyl-8-(2-(dimethylamino)ethyl)imidazo[1,2-a]pyridin-2-yl)methyl)amino)pyridin-2-yl)cyclopropane-1-carboxamide] | < 400 | < 1 |
| O=C(Nc1cc(NCc2cn3cc(C4CC4)cc(N4CC5(C4)CN(C4CC4)C5)c3n2)ccn1)[C@H]1C[C@@H]1c1cccc(Cl)c1 [Example I-24, (1S,2S)-2-(3-chlorophenyl)-N-(4-(((6-cyclopropyl-8-(6-cyclopropyl-2,6-diazaspiro[3.3]heptan-2-yl)imidazo[1,2-a]pyridin-2-yl)methyl)amino)pyridin-2-yl)cyclopropane-1-carboxamide] | 1500 to 10000 | < 1 |
| O=C(Nc1cc(NCc2cn3cc(C4CC4)ccc3n2)ccn1)[C@H]1C[C@@H]1c1cc(Cl)ccn1 (racemic) [Example I-268, rac-(1S*,2S*)-2-(4-chloropyridin-2-yl)-N-(4-(((6-cyclopropylimidazo[1,2-a]pyridin-2-yl)methyl)amino)pyridin-2-yl)cyclopropane-1-carboxamide] | 10000 to 48000 | < 1 |
| Cc1ccnc([C@H]2C[C@@H]2C(=O)Nc2cc(N[C@H](C)c3cn4cc(C5CC5)cc(N5C[C@@H]6C[C@@H]6C5=O)c4n3)ncn2)n1 (racemic) [Example 443, (1S,2S)—N-(6-(((R)-1-(6-cyclopropyl-8-((1R*,5S*)-2-oxo-3-azabicyclo[3.1.0]hexan-3-yl)imidazo[1,2-a]pyridin-2-yl)ethyl)amino)pyrimidin-4-yl)-2-(4-methylpyrimidin-2-yl)cyclopropane-1-carboxamide] | < 400 | < 1 |
| O=C(Nc1nc(O)nc(NCc2cn3cc(C4CC4)ccc3n2)n1)[C@H]1C[C@@H]1c1cccc(Cl)c1 [Example 295, (1S,2S)-2-(3-chlorophenyl)-N-(4-(((6-cyclopropylimidazo[1,2-a]pyridin-2-yl)methyl)amino)-6-hydroxy-1,3,5-triazin-2-yl)cyclopropane-1-carboxamide] | 1500 to 10000 | < 1 |
| Cc1ccnc([C@H]2C[C@@H]2C(=O)Nc2cc(SCc3cn4cc(C5CC5)cc(N5CC(=O)N(C)C5=O)c4n3)nc(C)n2)n1 [Example I-638, (1S,2S)—N-(6-(((6-cyclopropyl-8-(3-methyl-2,4-dioxoimidazolidin-1-yl)imidazo[1,2-a]pyridin-2-yl)methyl)thio)-2-methylpyrimidin-4-yl)-2-(4-methylpyrimidin-2-yl)cyclopropane-1-carboxamide] | 400 to 1500 | < 1 |
| CC(=O)Nc1cc(C2CC2)cn2cc(CNc3cc(NC(=O)[C@H]4C[C@@H]4c4cccc(Cl)c4)ncn3)nc12 [Example 275, (1S,2S)—N-(6-(((8-acetamido-6-cyclopropylimidazo[1,2-a]pyridin-2-yl)methyl)amino)pyrimidin-4-yl)-2-(3-chlorophenyl)cyclopropane-1-carboxamide] | 1500 to 10000 | 1 to 10 |
| CN(c1cc(C2CC2)cn2cc(CNc3ccnc(NC(=O)[C@H]4C[C@@H]4c4cccc(Cl)c4)c3)nc12)S(C)(=O)=O [Example 128, (1S,2S)-2-(3-chlorophenyl)-N-(4-(((6-cyclopropyl-8-(N-methylmethylsulfonamido)imidazo[1,2-a]pyridin-2-yl)methyl)amino)pyridin-2-yl)cyclopropane-1-carboxamide] | 400 to 1500 | < 1 |
| Cc1ccnc([C@H]2C[C@@H]2C(=O)Nc2cc(NCc3cn4cc(C5CC5)cc(N5CC(=O)N(C)C5=O)c4n3)nc(C(F)(F)F)n2)n1 (racemic) [Example 501, rac-(1S*,2S*)-N-(6-(((6-cyclopropyl-8-(3-methyl-2,4-dioxoimidazolidin-1-yl)imidazo[1,2-a]pyridin-2-yl)methyl)amino)-2-(trifluoromethyl)pyrimidin-4-yl)-2-(4-methylpyrimidin-2-yl)cyclopropane-1-carboxamide] | 400 to 1500 | < 1 |
| CN1CCC(O)(c2cc(C3CC3)cn3cc(CNc4cc(NC(=O)[C@H]5C[C@@H]5c5cccc(Cl)c5)ncn4)nc23)CC1 [Example 401, (1S,2S)-2-(3-chlorophenyl)-N-(6-(((6-cyclopropyl-8-(4-hydroxy-1-methylpiperidin-4-yl)imidazo[1,2-a]pyridin-2-yl)methyl)amino)pyrimidin-4-yl)cyclopropane-1-carboxamide] | 400 to 1500 | < 1 |
| Cc1ccnc([C@H]2C[C@@H]2C(=O)Nc2cc(NCc3cn4cc(C5CC5)cc(N5CC6CC6C5=O)c4n3)ncn2)n1 (relative stereo) [Example 317, rac-(1S*,2S*)—N-(6-(((6-cyclopropyl-8-(2-oxo-3-azabicyclo[3.1.0]hexan-3-yl)imidazo[1,2-a]pyridin-2-yl)methyl)amino)pyrimidin-4-yl)-2-(4-methylpyrimidin-2-yl)cyclopropane-1-carboxamide] | 1500 to 10000 | < 1 |
